Measurements: patent publication US20230404893A1, “Oral Care Compositions Comprising Ascorbic Acid Derivatives” (Colgate-Palmolive Company, priority 2020, published 2023)

Key:
[1] = Color of toothpaste samples measured with a spectrophotometer (L*, a*, b*); assay type: physicochemical; conditions: basic toothpaste formulas with sodium ascorbyl phosphate, with/without sodium stearate
Experimental: To overcome this color issue, surfactants are added to the basic toothpaste formulas in combination with sodium ascorbyl phosphate. Table 15 describes one basic toothpaste formula, to which sodium ascorbyl phosphate and surfactants are added. Three surfactants, sodium stearate, sodium cocoyl glutamate and sodium lauryl isoethionate, are screened, alone and in different combinations with/without sodium ascorbyl phosphate.
Samples of basic toothpaste G with different amounts and combinations of surfactants with/without sodium ascorbyl phosphate are prepared and evaluated for color, as shown in Table 16. A high “b*” value indicates a more yellow color while a lower value indicates a more blue color. A high “L*” value indicates a whiter sample compared to a low “L*” value which indicates a darker sample. As can be observed in Table 16 samples without sodium stearate that incorporate sodium ascorbyl phosphate tends to increase the “b*” value, indicating a more yellow color. Samples that incorporate sodium stearate with sodium ascorbyl phosphate tend to have a relative reduction in “b*” value, indicating less yellow color.

[2] = Standard brushing study, Toothpaste F samples (starting L 57.3-66.3, twelve teeth per cell); parameters: species or system bovine; conditions: ΔW data of Table 14, Toothpaste F
Experimental: Bovine enamel teeth mounted individually in resin blocks are purchased and brushed with an abrasive paste until initial “L” values were 56-68. Trays are prepared for the brushing machine and each tray consists of six teeth mounted using 3D printed trays. Baseline optical measurements of the bovine teeth are taken using a spectrophotometer and the trays are loaded onto the brushing machine.
Toothbrushes are placed on the brushing machine by removing the head of a manual toothbrush from its handle. Slurry composed of 1:1 ratio by weight of test toothpaste to artificial saliva is prepared and added to each tray. The teeth are brushed for two minutes with 250 grams of pressure at 120 strokes per minute. After brushing is stopped, the slurry is removed and residual toothpaste is rinsed away with deionized water. The brushing treatment is repeated a total of 14 times and measurements are taken every 2 cycles. The teeth are then gently blotted with a paper towel to remove excess liquid and measurements are taken with the spectrophotometer. […] The “L”, “a”, and “b” values are determined and are used to calculate the change in whiteness “ΔW” for each tooth after the treatment. […]

In the case of `O=C1O[C@H]([C@@H](O)CO)C([O-])=C1OP(=O)([O-])[O-].[Na+].[Na+].[Na+]` [sodium ascorbyl phosphate], the “color of the toothpaste (in words)” value [1] is reported as “observable yellow color” and the “whitening efficacy (in words)” value [2] is reported as “significant effect on whitening efficacy”.
